Test results taken from patent US5401743A, “Aminoalkyl-substituted 2-amino-5-mercaptothiadiazoles the preparation and use thereof” (BASF Aktiengesellschaft, priority 1991, dated 1995).
Where a name gives a salt, the structure may show the parent alone.

target: T1, dopamine D2 receptor (Rattus norvegicus, UniProt P61169); experiment: Receptor binding assay: affinity for the dopamine D2 receptor (3H-ADTN displacement, rat striatal membranes); set-up: species or system rat (Sprague Dawley); conditions: not given
T1 construct: Striata from rats (Sprague Dawley, Charles River) were homogenized immediately after removal; from tissue; host or cells: rat striatum (Sprague Dawley, Charles River), membranes
Procedure: The effects of the novel compounds can be shown in the receptor binding assay as follows:
Striata from rats (Sprague Dawley, Charles River) were homogenized immediately after removal in 0.32M sucrose solution (0° C.). The homogenate was filtered through gauze, the filtrate was centrifuged at 1000 xg (5 min at 4° C.) and the resulting supernatant was centrifuged at 40000 xg (4° C., 10 min). The residue (membranes) was taken up in incubation buffer (50 mM tris-HCl, 1 mM MgCl2 and 0.1% ascorbic acid, pH 7.4) and incubated at 37° C. for 20 min. The residue was subsequently washed 2× with incubation buffer by resuspension and recentrifugation. The membranes were frozen in portions in liquid nitrogen.
The assay mixtures (1 ml) were composed of membranes (380 μg of protein), 1 nM ^3 H-ADTN (NEN, Dreieich Germany, specific radioactivity 1.4 TBq/mmol) and 0.1 μM SCH 23390 (total binding) or a) with the addition of 50 nM spiperone (non-specific binding) or b) with test substance. The mixtures were prepared in triplicate.
After the incubation (40 min at 25° C.) the mixtures were filtered through glass fiber filters (Whatman GF/B) and briefly washed with ice-cold washing buffer (Tris-HCl, pH 7.4). The radioactivity retained on the filters was determined by liquid scintillation counting. The non-specific binding comprised about 40-50% of the total binding.
The evaluation of the competition plots and the determination of the dissociation constant took place by iterative non-linear regression analysis based on the "ligand" program (Muson and Rodbard: Anal. Biochem. 107 (1980) 220).
Affinity of the test substances for the dopamine D2 receptor

T1 sequence (P61169 whole entry): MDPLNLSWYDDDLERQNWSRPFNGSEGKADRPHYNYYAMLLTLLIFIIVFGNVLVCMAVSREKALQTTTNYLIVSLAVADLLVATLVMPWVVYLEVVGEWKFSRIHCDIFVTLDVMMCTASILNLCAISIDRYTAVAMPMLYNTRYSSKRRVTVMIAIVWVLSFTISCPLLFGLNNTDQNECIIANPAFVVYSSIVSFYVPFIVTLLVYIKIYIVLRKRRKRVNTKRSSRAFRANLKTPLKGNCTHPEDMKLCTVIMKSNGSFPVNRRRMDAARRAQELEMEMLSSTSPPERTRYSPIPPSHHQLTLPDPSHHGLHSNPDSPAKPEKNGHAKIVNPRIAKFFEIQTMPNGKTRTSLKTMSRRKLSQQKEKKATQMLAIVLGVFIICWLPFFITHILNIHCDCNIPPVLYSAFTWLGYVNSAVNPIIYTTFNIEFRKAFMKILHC

| Compound | Ki [nM] |
| --- | --- |
| Nc1nnc(SCCN2CC=C(c3ccccc3)CC2)s1 [Example 3, 2-Amino-5-[2-(4-phenyl-1,2,3,6-tetrahydropyridyl)-ethylthio]-1,3,4-thiadiazole dihydrochloride] | 12 |
| Nc1nnc(SCCCN2CC=C(c3ccccc3)CC2)s1 [Example 4, 2-Amino-5-[3-(4-phenyl-1,2,3,6-tetrahydropyridyl)-propylthio]-1,3,4-thiadiazole hydrochloride] | 6 |

same assay, conditions: rat striatal membranes, 1 nM 3H-ADTN, 0.1 μM SCH 23390, 40 min at 25° C., pH 7.4; non-specific binding with 50 nM spiperone; read-out: Ki (affinity of the test substances for the dopamine D2 receptor)

| Ki [nM] | Compound |
| --- | --- |
| 125 | Nc1nnc(SCCCN2CCN(c3ccc(F)cc3)CC2)s1 [Example 1, 2-Amino-5-[3-(4-fluorophenylpiperazinyl)propylthio]-1,3,4-thiadiazole dihydrochloride] |
| 45 | Nc1nnc(SCCN2CCC(c3ccccc3)CC2)s1 [Example 8, 2-Amino-5-[2-(4-phenylpiperidinyl)ethylthio]-1,3,4-thiadiazole hydrochloride] |
| 45 | CCCN(CCCSc1nnc(N)s1)CCc1ccccc1 [Example 9, 2-Amino-5-[3-(2-phenylethyl-n-propylamino)propylthio]-1,3,4-thiadiazole tartrate] |
| 15 | CCOc1ccccc1N1CCN(CCSc2nnc(N)s2)CC1 [Example 11, 2-Amino-5-[2-(4-(2-ethoxyphenyl)piperazinyl)ethylthio]-1,3,4-thiadiazole hydrochloride] |
| 36 | Cc1cccc(N2CCN(CCCSc3nnc(N)s3)CC2)c1 [Example 14, 2-Amino-5-[3-(4-(3-methylphenyl)piperazinyl)propylthio]-1,3,4-thiadiazole hydrochloride] |
